Reference: patent publication US20070166547A1, “Use of a layer consisting of hydrophobic linear, or two-dimensional polycyclic aromatics as a barrier layer or an encapsulation and electric components constructed with a layer of this type and comprising organic polymers” (priority 2003, published 2007)

What was measured:
[1] = tested on: synthase of nitrogen oxide (NOC); experiment: Morphine abstinence model: activity of synthase of nitrogen oxide (radiometric, [3H]L-citrulline); type: in vivo, rats Wistar
[2] = tested on: thymus; experiment: Morphine abstinence model: thymus condition; type: in vivo, rats; settings: morphinized rats then compound
Protocol: The effect of the compounds according to the invention on the condition of the thymus of the rats was also investigated: a control group, an experimental group of morphinized animals and an experimental group of animals were first morphinized and then injected with the compounds according to the invention. The experiment was carried out similarly to that described above.

[3] = tested on: adenosine-sensitive receptors of thrombocytes; experiment: ADP-induced aggregation of thrombocytes in vitro (Born method); type: cell-based, rabbit; settings: 3 min incubation, ADP 10^−5 M
Protocol: The compounds according to the invention were studied for the effect of aggregation of thrombocytes induced by a preliminary introduction of a solution of an aggregation inductor with a competing introduction of the compounds according to the invention.
The aggregation of thrombocytes was studied by the Born method based on determination of the changes in the optical density of plasma enriched with thrombocytes after its incubation with an aggregation inductor.
Adenozinediphosphoric acid (ADP) was selected as an aggregation inductor, which in fact is an aggregation generator. Use was made of a sample (registration number 885) of the Sigma Diagnostics Company (USA) in final concentration of 10^−5 M.
The experiments were carried out on male rabbits of the “Chinchilla” breed having a mass of 2.7±0.3 kg. 18-24 hours prior to the experiment they were deprived of feed while preserving free access to water.
To obtain plasma enriched with thrombocytes, blood was taken from a cut of a marginal vein of the rabbit ear, the sample was stabilized with 3.8% of sodium citrate solution in a ratio of 9:1 and centrifuged at 200 g (1000 rev/min) for 10 minutes. The top supernatant layer enriched with thrombocytes was transferred by an automatic dropper into a silicone test tube and kept at 37° C. The plasma enriched with thrombocytes contained, on the average, […]. If this content exceeded the specified 3×10^8 blood platelets in 1 liter, this sample was diluted to the necessary concentration with plasma deprived of thrombocytes, which was obtained by centrifuging blood at 650 g during 10 minutes.
The measurements of the optical density of the samples were made on two-channel aggregometer of the “Chronolog” Company (USA). A flask containing 490 mkl of plasma rich with thrombocytes was placed in a device, into which a magnetic agitator covered with Teflon was lowered. The index of maximum amplitude of aggregation (MA) in percent of a fall of the plasma optical density under effect of the aggregation inductor was recorded. The control index MA of plasma was compared with the MA of plasma incubated for 3 minutes with different concentrations of the compounds: from 10^−3 to 10^−7 in vitro experiments or with plasma obtained 15, 30, 60 and 120 minutes after intravenous administration of different doses of the compounds in vivo experiments.
The process of aggregation of thrombocytes was recorded with the help of a computer; on the monitor screen the there were depicted curves reflecting changes of the optical density of the plasma enriched which was taken as a standard 100% compared to the optical density of the non-thrombocyte plasma taken for 0% content of thrombocytes.
Under in vitro conditions a flask was filled with blood plasma enriched with thrombocytes, to which an aggregation inductor ADP was added at a concentration of 10^−5 M, incubated for 3 minutes, and then the compounds according to the invention were introduced directly into the flask. Their action by aggregation of thrombocytes was studied after 3-minute incubation in a wide range of concentrations from 10^−3 to 10^−7 M to minimum concentration of 10^−7 M not inducing no effect of suppressing the aggregation.

[4] = tested on: thymus; experiment: Morphine abstinence model: thymus condition; type: in vivo, rats; settings: compound alone
[5] = tested on: metabolism of nitrogen oxide; experiment: Morphine abstinence model: nitrites and nitrates NOX− in blood plasma, liver and brain; type: in vivo, rats Wistar
Protocol: (§1) The experiments were carried out on rats in series of 7 animals on each compound according to the invention. Non-morphinized animal with not administered with compounds according to the invention were used as a control group. […] Then the rats were decapitated, the blood from somnolent arteries was collected in test tubes with solution EDTA as an anticoagulant, centrifuged at 1500 g for 15 minutes at 4° C.
To estimate the intensity of metabolism of nitrogen oxide in rats, quantitative determination of stable metabolites of nitrogen oxide—nitrites and nitrates NOX^− in the blood plasma, supernatanates of the liver and thymus gland, a study was conducted by a spectrometric method, and in the brain supernatanates by a […] method.
The spectrometric method is based the reaction of nitrites with the Griss reagent (a mixture of 2% solution of sulfanilamide and 0.2% N-(1-naphthyl)ethylene diamine. At the first step the nitrite reacts with sulfanilamide with formation of diazonium salt, and then with the second component to form azo dye with an adsorption maximum at 540 nm. For reduction of nitrates into nitrites, a fermentative method was used with bacterial reductase nitrate (Grisham M. B. et al., 1995). The samples of plasma and supernatant of the liver deproteinizated at 100° C. for 5 minutes incubated for 30 minutes at 37° C. in 50.0 mM of HEPES pH 7.4 in the presence of 0.2 unit/ml of Aspergillus reductase nitrate, 5.0 mkM of FAD and 0.1 mM of NAD-Ph. At the end of the reaction lactate dehydrogenase and pyruvate were added for isolation of NAD-Ph interfering with the Griss reaction. Then the Griss reagent was added and after 10-minute incubation the light absorption of the samples was measured at 540 nm. To amount of NOX^− was calculated using sodium nitrate as a standard.
The fluorometric method is based on calculation of the nitrite level by the intensity fluorescence of 2,3-diaminonaphthotriazole, a product of reaction of 2,3-diaminonaphthalene (DAN) and nitrite in an acidic medium (Misko T. R., Schilling R. J., Salvemini D. et al. “A fluorometric assay for the measurement of nitrite of biological samples”. Anal. Biochem., 1993, v. 214, p. 11-16). The brain supernatants deproteinizated at 100° C. were placed in a nitrite regenerating system containing 0.125 unit/ml of nitrate reductases, 25 mkM NADPh and 25 mkM FAD prepared in a 20-mM Tris-HCl buffer with pH 7.6 and incubated for 30 minutes at 37° C. The lactatedehydrogenase/pyruvate system was used for oxidation of the NADPh. Then 316 mkM of the DAN solution in 0.62 M of hydrochloric acids were added and the mixture was incubated for 10 minutes in darkness.
280 mM of NaOH were added for stabilization of the fluorescence of the formed 2,3-diaminonaphthotriazole. The fluorescence intensity was measured in the spectrofluorimeter Hitachi F-3000 at a wavelength of excitation of 365 nm and an emission of 405 nm. The concentration of NOX^− in the brain was calculated by means of a standard solution of sodium nitrate.

[6] = tested on: indicator enzymes in blood plasma; experiment: Morphine abstinence model: indicator enzymes AST, ALT, γ-GTP in blood plasma; type: in vivo, rats Wistar
Protocol: as §1
To estimate possible hepatoprotective action of the compounds according to the invention under conditions of development of an oxidizing stress in the liver cells, effect of these compounds on the most important biochemical blood indexes, in particular, on the content in blood plasma of indicator enzyme of aspartateaminotransferase (AST), alanineaminotransferase (ALT), γ-glutamiletranspeptidase (γ-GTP) was investigated. The content of enzymes was estimated by their catalyzing activity in blood plasma.
The activity of AST, ALT and γ-GTP was determined by means of diagnostic sets DiaSys, Germany.

[7] = for comparison; cited from earlier work
[8] = compound alone 20.0 mg/kg intramuscularly
[9] = morphinized rats then compound 20.0 mg/kg intramuscularly

## O=c1[nH][nH]c(=O)c2ncccc12.[Li] [Compound 6, lithium salt of pyrido[2,3-d]-6H-pyridazine-5,8-dione]
[1]; [8]
  Activity of NOC, Hypothalamus, Control + Compound: 5.93 ± 0.27 pmol/min/mg of protein
  Activity of NOC, Mesencephalon, Control + Compound: 2.84 ± 0.31 pmol/min/mg of protein
[1]; [9]
  Activity of NOC, Hypothalamus, Control + Morphine + compound: 5.24 ± 0.24 pmol/min/mg of protein
  Activity of NOC, Mesencephalon, Control + Morphine + compound: 1.99 ± 0.31 pmol/min/mg of protein
[2]
  Nitrites, thymus Supernatant, Administration of morphine and compound: 0.419 ± 0.02 nmol/mg of protein
  Thymus mass, Administration of morphine and compound: 207 ± 14 mg
[3]; 10^−3 M
  MA - fall of optical density of plasma, % to the standard: 50.0 ± 1.9 %
[3]; 10^−4 M
  MA - fall of optical density of plasma, % to the standard: 53.3 ± 2.2 %
[3]; 10^−5 M
  MA - fall of optical density of plasma, % to the standard: 47.4 ± 2.0 %
[3]; 10^−6 M
  MA - drop of optical density, % compared to control: 51.2 ± 3.2%
[3]; 10^−7 M
  MA - drop of optical density, % compared to control: 50.7 ± 3.2%
[4]
  Nitrites, thymus Supernatant, Administration of compounds: 0.424 ± 0.04 nmol/mg of protein
  Thymus mass, Administration of compounds: 242 ± 17 mg
[5]; [8]
  Nitrites in blood plasma, Control + Compound: 15.83 ± 1.21 mkmol/ml
  Nitrites in brain, Cortex of cerebrum, Control + Compound: 4.59 ± 0.44 nmol/mg of protein
  Nitrites in brain, Hypothalamus, Control + Compound: 6.94 ± 0.67 nmol/mg of protein
  Nitrites in brain, Mesencephalon, Control + Compound: 7.01 ± 0.82 nmol/mg of protein
  Nitrites in liver, Control + Compound: 0.245 ± 0.010 nmol/mg of protein
[5]; [9]
  Nitrites in blood plasma, Control + Morphine + compound: 15.86 ± 1.20 mkmol/ml
  Nitrites in brain, Cortex of cerebrum, Control + Morphine + compound: 5.12 ± 0.18 nmol/mg of protein
  Nitrites in brain, Hypothalamus, Control + Morphine + compound: 6.72 ± 0.94 nmol/mg of protein
  Nitrites in brain, Mesencephalon, Control + Morphine + compound: 5.76 ± 0.94 nmol/mg of protein
  Nitrites in liver, Control + Morphine + compound: 0.294 ± 0.02 nmol/mg of protein
[6]; [8]
  ALT, Ci, mE/l, Control + compound: 114.5 ± 1.13 mE/l
  AST, Ci, mE/l, Control + compound: 176.18 ± 3.26 mE/l
  γ-GTP, Ci, mE/l, Control + compound: 8.27 ± 2.12 mE/l
[6]; [9]
  ALT, Ci, mE/l, control + Morphine + Compound: 122.44 ± 2.01 mE/l
  AST, Ci, mE/l, control + Morphine + Compound: 198.34 ± 9.32 mE/l
  γ-GTP, Ci, mE/l, control + Morphine + Compound: 12.52 ± 2.02 mE/l

## Cc1cc2nc3c(=O)[nH]c(=O)nc-3n(C[C@H](O)[C@H](O)[C@H](O)COP(=O)(O)OP(=O)(O)OC[C@H]3O[C@@H](n4cnc5c(N)ncnc54)[C@H](O)[C@@H]3O)c2cc1C [FAD^+]
[7]
  E1/2 of electrochemical reduction of coenzyme: −0.05 V

## NC(=O)c1ccc[n+]([C@@H]2O[C@H](COP(=O)([O-])OP(=O)(O)OC[C@H]3O[C@@H](n4cnc5c(N)ncnc54)[C@H](O)[C@@H]3O)[C@@H](O)[C@H]2O)c1 [NAD^+]
[7]
  E1/2 of electrochemical reduction of coenzyme: −0.32 V
